Key:
Format in all cases: functional, cell membranes, Plasma membrane
Conditions in all cases: cem-vlb
[1] = target: T1, ATP-dependent translocase ABCB1 (Homo sapiens, UniProt P08183); assay: TP_TRANSPORTER: inhibition of IAAP photoaffinity labelling (IAAP: 0.02 uM, PSC-833: 100-fold molar excess) in plasma membranes from CEM/VLB1.0 cells
[2] = target: T1, ATP-dependent translocase ABCB1; assay: TP_TRANSPORTER: inhibition of Ivermectin binding (IVM: 0.2 uM, Vinblastine: 300-fold molar excess) in plasma membranes from CEM/VLB1.0 cells; set-up: scale not given: the % may be the effect or the level left
[3] = target: T1, ATP-dependent translocase ABCB1; assay: TP_TRANSPORTER: inhibition of IAAP photoaffinity labelling (IAAP: 0.02 uM, IVM: 100-fold molar excess) in plasma membranes from CEM/VLB1.0 cells; set-up: scale not given: the % may be the effect or the level left
[4] = target: T1, ATP-dependent translocase ABCB1; assay: TP_TRANSPORTER: inhibition of Vinblastine binding (Vinblastine: 0.2 uM, IVM: 300-fold molar excess) in plasma membranes from CEM/VLB1.0 cells; set-up: scale not given: the % may be the effect or the level left

T1 sequence (P08183 whole entry): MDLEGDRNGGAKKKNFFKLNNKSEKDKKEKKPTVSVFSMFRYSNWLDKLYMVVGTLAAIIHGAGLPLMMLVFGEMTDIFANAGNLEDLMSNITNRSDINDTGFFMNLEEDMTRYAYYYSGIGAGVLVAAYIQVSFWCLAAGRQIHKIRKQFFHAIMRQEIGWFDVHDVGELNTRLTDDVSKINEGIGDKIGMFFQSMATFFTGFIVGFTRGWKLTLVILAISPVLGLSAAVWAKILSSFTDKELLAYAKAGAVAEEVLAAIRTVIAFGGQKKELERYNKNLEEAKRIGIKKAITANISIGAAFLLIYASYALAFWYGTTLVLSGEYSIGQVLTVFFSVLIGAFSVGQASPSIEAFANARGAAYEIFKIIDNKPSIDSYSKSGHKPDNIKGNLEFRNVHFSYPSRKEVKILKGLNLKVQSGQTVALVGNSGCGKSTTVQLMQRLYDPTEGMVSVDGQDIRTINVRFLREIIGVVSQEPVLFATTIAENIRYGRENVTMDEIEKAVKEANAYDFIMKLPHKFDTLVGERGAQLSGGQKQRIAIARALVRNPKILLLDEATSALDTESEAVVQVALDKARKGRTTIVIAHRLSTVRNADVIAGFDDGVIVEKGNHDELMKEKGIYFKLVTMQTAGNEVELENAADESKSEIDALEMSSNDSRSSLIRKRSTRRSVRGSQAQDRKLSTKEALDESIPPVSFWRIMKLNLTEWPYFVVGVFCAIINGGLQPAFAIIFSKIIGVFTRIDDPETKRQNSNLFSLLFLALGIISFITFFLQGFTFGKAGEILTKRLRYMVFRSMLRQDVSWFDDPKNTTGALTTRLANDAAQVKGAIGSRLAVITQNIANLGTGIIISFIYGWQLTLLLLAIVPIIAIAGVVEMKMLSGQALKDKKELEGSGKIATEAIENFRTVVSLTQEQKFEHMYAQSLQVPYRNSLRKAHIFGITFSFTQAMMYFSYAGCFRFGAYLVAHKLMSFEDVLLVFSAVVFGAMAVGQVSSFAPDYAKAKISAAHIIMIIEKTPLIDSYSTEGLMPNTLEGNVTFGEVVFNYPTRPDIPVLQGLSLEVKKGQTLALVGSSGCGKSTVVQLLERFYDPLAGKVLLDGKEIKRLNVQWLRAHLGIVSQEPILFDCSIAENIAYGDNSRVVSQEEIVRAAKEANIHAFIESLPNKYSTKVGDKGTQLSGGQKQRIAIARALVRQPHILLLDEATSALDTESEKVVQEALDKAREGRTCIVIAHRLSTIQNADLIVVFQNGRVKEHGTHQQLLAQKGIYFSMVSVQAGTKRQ

Molecule: C/C=C/C[C@@H](C)C(=O)[C@H]1C(=O)N[C@@H](C(C)C)C(=O)N(C)CC(=O)N(C)[C@@H](CC(C)C)C(=O)N[C@@H](C(C)C)C(=O)N(C)[C@@H](CC(C)C)C(=O)N[C@@H](C)C(=O)N[C@H](C)C(=O)N(C)[C@@H](CC(C)C)C(=O)N(C)[C@@H](CC(C)C)C(=O)N(C)[C@@H](C(C)C)C(=O)N1C [VALSPODAR]
- Activity [1]: inhibitor [+]

Molecule: CC[C@]1(O)C[C@@H]2CN(CCc3c([nH]c4ccccc34)[C@@](C(=O)OC)(c3cc4c(cc3OC)N(C)[C@H]3[C@@](O)(C(=O)OC)[C@H](OC(C)=O)[C@]5(CC)C=CCN6CC[C@]43[C@@H]65)C2)C1 [VINBLASTINE]
- Activity [2]: 44%

Molecule: IVERMECTIN
- Activity [3]: 0%
- Activity [4]: 0%
